In paper PMC9849758, “Chemically diverse activity-based probes with unexpected inhibitory mechanisms targeting trypsin-like serine proteases” (Frontiers in Chemistry, 2023):
“Also recorded” adds a separate entry of the source.

Tested on: proteases in human mast cell supernatants
Assay: Labeling of mast cell supernatants, functional proteomic profiling
Settings: 1 µM ABP, 10 µg total protein, two donors, IgE/DNP stimulated and non-stimulated
Protocol: Peripheral blood mononuclear cells (PBMCs) were obtained from buffy coats (Etablissement Français du Sang). CD34^+ precursors cells were isolated from PBMCs (EasySep™ Human CD34 Positive Selection Kit, STEMCELL Technologies) and grown under serum-free conditions using StemSpanTM medium (STEMCELL Technologies) supplemented with recombinant human IL-6 (50 ng/ml; Peprotech), human IL-3 (10 ng/ml; Peprotech) and 3% supernatant of CHO transfectants secreting murine SCF (a gift from Dr. P. Dubreuil, Marseille, France, 3% correspond to ∼50 ng/ml SCF) for 1 week. Cells were next grown in IMDM Glutamax I, sodium pyruvate, 2-mercaptoethanol, .5% BSA, Insulin-transferrin selenium (all from Invitrogen), penicillin (100 U/ml), streptomycin (100 μg/ml) and 3% supernatant of CHO transfectants secreting murine SCF for 8 weeks then tested phenotypically (CD117+, FcεRI+) and functionally (β-hexosaminidase release in response to FcεRI crosslinking) before use for experiments. Only primary cell lines showing more than 95% CD117+/FcεRI+ cells were used for experiments.
1 × 10^5 mast cells were distributed in 50 µl Tyrode’s Buffer and adapted to 37°C for 30 min. Mast cells were next stimulated with DNP-BSA (200 ng/ml) after sensitization with 1 μg/ml of IgE anti DNP (Sigma-Aldrich) overnight. Supernatants were harvested and stored at −80°C. (β-hexosaminidase was assayed by measuring the release of p-nitrophenol from the substrate p-nitrophenyl N-acetyl-β-D-glucosaminide).
Mast cell supernatants (10 µg of total protein) were labeled with 1 µM individual ABPs (46b, 52b, or 57b) in 50 mM Tris, 120 mM NaCl, .1 mg/ml BSA, 50 μg/ml heparin, pH 8 at 25°C (Sigma-Aldrich) in a final volume of 500 µL. […] The molecular weight of each band was determined with the Image Lab Software v5 (Bio-Rad) with Dual Color Protein Precision Plus Standard (10–250 kDa; Bio-Rad) as reference. […]

| SMILES | labeling of proteases in mast cell supernatants |
| --- | --- |
| C[C@@H]1NC(=O)N[C@@H]1CCCCCC(=O)NCCOCCOCCOCCn1cc(CCCOC(=O)NC(CCCNC(=N)N)P(=O)(Oc2ccc(Cl)cc2)Oc2ccc(Cl)cc2)nn1 (stereo partly drawn) [46b] | can label proteases in a complex proteome |
| C[C@@H]1NC(=O)N[C@@H]1CCCCCC(=O)NCCOCCOCCOCCn1cc(CCCOC(=O)NC(c2ccc(NC(=N)N)cc2)P(=O)(Oc2ccc(Cl)cc2)Oc2ccc(Cl)cc2)nn1 (stereo partly drawn) [57b] | can label proteases in a complex proteome |
| C[C@@H]1NC(=O)N[C@@H]1CCCCCC(=O)NCCOCCOCCOCCn1cc(CCCOC(=O)NC(Cc2ccc(NC(=N)N)cc2)P(=O)(Oc2ccc(Cl)cc2)Oc2ccc(Cl)cc2)nn1 (stereo partly drawn) [54b] | can label proteases in a complex proteome; also recorded: best resolution |
